# Key:
# Experiment in all cases: relative viability (nuclei count vs DMSO), 5 days (fraction); higher = more cells survive
# Carboplatin + Crizotinib = compound: C1CC(C1)(C(=O)O)C(=O)O.[NH2-].[NH2-].[Pt+2] [Carboplatin] + C[C@@H](Oc1cc(-c2cnn(C3CCNCC3)c2)cnc1N)c1c(Cl)ccc(F)c1Cl [Crizotinib] (partner 1 µM)
# Procedure, shortened: (§1)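 Medians of duplicate plates are given as relative viability. That measure is the nuclei count in treated wells divided by the count in vehicle wells. Counts were taken on 4× images of lung cancer cell lines in 1536-well plates, 5 days after pin-tool dosing the day after seeding with one drug alone or a fixed anchor-drug dose plus five library-drug doses (not always all listed) in √10 steps.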
# MLN4924 + Linsitinib = compound: NS(=O)(=O)OC[C@@H]1C[C@@H](n2ccc3c(N[C@H]4CCc5ccccc54)ncnc32)C[C@@H]1O [MLN4924] + C[C@]1(O)C[C@@H](c2nc(-c3ccc4ccc(-c5ccccc5)nc4c3)c3c(N)nccn32)C1 [Linsitinib] (partner 1 µM)
# Procedure, shortened: as §1
# GSK126 + Lapatinib = compound: CC[C@H](C)N1C=C(C2=C(C=C(C=C21)C3=CN=C(C=C3)N4CCNCC4)C(=O)NCC5=C(C=C(NC5=O)C)C)C [GSK126] + CS(=O)(=O)CCNCc1ccc(-c2ccc3ncnc(Nc4ccc(OCc5cccc(F)c5)c(Cl)c4)c3c2)o1 [Lapatinib] (partner 2 µM)
# Procedure, shortened: as §1
# MLN4924 + Tozasertib = compound: NS(=O)(=O)OC[C@@H]1C[C@@H](n2ccc3c(N[C@H]4CCc5ccccc54)ncnc32)C[C@@H]1O [MLN4924] + Cc1cc(Nc2cc(N3CCN(C)CC3)nc(Sc3ccc(NC(=O)C4CC4)cc3)n2)n[nH]1 [Tozasertib] (partner 0.1 µM)
# Procedure, shortened: as §1
Cell Line,relative viability (Carboplatin + Crizotinib; first compound 0.08 µM),relative viability (Carboplatin + Crizotinib; first compound 0.253 µM),relative viability (Carboplatin + Crizotinib; first compound 0.8 µM),relative viability (Carboplatin + Crizotinib; first compound 2.53 µM),relative viability (Carboplatin + Crizotinib; first compound 8 µM),relative viability (MLN4924 + Linsitinib; first compound 0.04 µM),relative viability (MLN4924 + Linsitinib; first compound 0.1265 µM),relative viability (MLN4924 + Linsitinib; first compound 0.4 µM),relative viability (MLN4924 + Linsitinib; first compound 1.265 µM),relative viability (MLN4924 + Linsitinib; first compound 4 µM),relative viability (GSK126 + Lapatinib; first compound 0.08 µM),relative viability (GSK126 + Lapatinib; first compound 0.253 µM),relative viability (GSK126 + Lapatinib; first compound 0.8 µM),relative viability (GSK126 + Lapatinib; first compound 2.53 µM),relative viability (GSK126 + Lapatinib; first compound 8 µM),relative viability (MLN4924 + Tozasertib; first compound 0.04 µM),relative viability (MLN4924 + Tozasertib; first compound 0.1265 µM),relative viability (MLN4924 + Tozasertib; first compound 0.4 µM),relative viability (MLN4924 + Tozasertib; first compound 1.265 µM),relative viability (MLN4924 + Tozasertib; first compound 4 µM)
NCI-H1355,1.16,1.18,1.02,1.02,1.02,0.875,0.704,0.789,0.207,0.211,1.04,1.07,0.989,0.967,0.992,0.549,0.553,0.576,0.3,0.204
NCI-H1437,0.909,0.96,0.892,0.936,0.805,0.959,0.828,0.466,0.221,0.103,0.95,0.729,0.776,0.748,0.852,0.298,0.254,0.176,0.195,0.133
NCI-H1651,0.931,0.929,0.738,0.748,0.712,1.13,0.973,0.431,0.334,0.135,0.896,0.834,0.805,0.843,0.894,0.759,0.782,0.524,0.321,0.133
NCI-H1666,0.997,1.07,0.838,0.917,0.568,1.01,0.504,0.263,0.225,0.252,0.635,0.608,0.724,0.704,0.695,0.56,0.635,0.447,0.266,0.27
NCI-H1734,0.682,0.673,0.637,0.716,0.614,1.01,1.09,0.519,0.178,0.155,1.07,1,1.03,1.18,1.15,0.261,0.267,0.154,0.12,0.0994
NCI-H1755,0.868,0.935,0.853,0.848,0.743,1.07,0.701,0.447,0.159,0.2,1.1,1.07,1.04,1.01,1.1,0.529,0.411,0.291,0.208,0.209
NCI-H1915,0.873,0.929,0.875,0.756,0.521,1.05,0.82,0.898,0.213,0.222,1.08,0.97,1.03,0.978,0.993,0.399,0.362,0.395,0.212,0.159
NCI-H1944,1.05,1.17,1,0.916,0.788,1.38,1.19,1.02,0.257,0.37,1.04,0.724,0.859,0.865,0.989,0.233,0.226,0.235,0.159,0.117
NCI-H1975,0.955,0.943,0.919,0.969,0.911,0.991,1.17,0.825,0.234,0.226,0.952,0.898,0.916,0.852,0.888,0.675,0.836,0.796,0.451,0.241
NCI-H1993,0.958,0.909,0.892,0.775,0.723,0.937,0.719,0.68,0.632,0.584,0.884,0.737,0.753,0.821,0.712,0.489,0.478,0.51,0.449,0.498
NCI-H2009,1.06,1,0.987,0.965,0.611,0.816,0.36,0.247,0.143,0.0806,1.23,0.893,0.985,0.942,1.06,0.724,0.433,0.257,0.126,0.0886
NCI-H2023,0.633,0.604,0.566,0.419,0.144,0.661,0.36,0.112,0.0836,0.0754,1.33,0.797,1.04,1.23,1.2,0.35,0.31,0.171,0.0719,0.0659
NCI-H2085,1.01,0.932,0.778,0.754,0.676,0.868,0.839,0.577,0.313,0.235,0.922,0.847,0.78,0.803,0.78,0.855,0.894,0.827,0.78,0.48
NCI-H2087,0.817,0.907,0.8,0.845,0.769,0.775,0.776,0.311,0.172,0.187,1.41,0.931,1.11,1.22,1.3,0.189,0.257,0.244,0.0576,0.0697
NCI-H2126,1.04,1.06,1.02,0.962,1,0.747,0.69,0.576,0.327,0.391,0.758,0.792,0.726,0.819,0.782,0.821,0.813,0.514,0.339,0.25
NCI-H2228,0.469,0.517,0.41,0.593,0.428,–,0.419,0.355,0.163,0.18,1.11,1.15,1.06,1.16,1.33,0.259,0.195,0.122,0.144,0.123
